For data set [1], the system named is Colo-205 (colorectal cancer) xenograft model. Briefly: In vivo efficacy/synergy study, relative tumor volume in Colo-205 xenograft model. The conditions noted are these: for Relative tumor volume: 5 days on. As for the experimental part: (§1) An in vivo efficacy study was conducted with olaparib alone as a single agent. […] Groups of animals (n=5) were dosed with olaparib (i.p.) 5 days on, 2 days off using 10-100 mg/kg doses.
(§2) Combination groups (n=5) were dosed with olaparib (i.p.) 5 days on, 2 days off, using a 50 mg/kg dose for 28 days.

Data set [2] deals with A549 (NSCLC) xenograft model. Nature of the data set: In vivo efficacy/synergy study, relative tumor volume in A549 xenograft model. As for the experimental part: as §1, §2
Data set [3] relates to y-H2AX foci (DSB formation). Nature of the data set: Immunohistochemical analysis of y-H2AX foci after olaparib treatment in xenograft models. It is filed as in vivo. The note with it: Example 3: after olaparib treatment, i.p. 10-100 mg/kg; Colo-205 and A549 xenograft models. As for the experimental part: An in vivo efficacy study was conducted with olaparib alone as a single agent. Olaparib was given as a single agent at different doses in a Colo-205 (colorectal cancer) xenograft model and in an A549 (NSCLC) xenograft model. Groups of animals (n=5) were dosed with olaparib (i.p.) 5 days on, 2 days off using 10-100 mg/kg doses.

Data set [4] can be described thus: Animal tolerability observation during BAY-1895344 dosing in the Colo-205 xenograft study. It is filed as in vivo. The conditions noted are these: Example 2: BAY-1895344 three times a week starting with 40 mg/kg, dose gradually reduced to 20 mg/kg.

“Also recorded” adds a separate entry of the source.

Consider two compounds from patent US20220088231A1, “RADIOIMMUNOCONJUGATES AND DNA DAMAGE AND REPAIR INHIBITOR COMBINATION THERAPY” (Fusion Pharmaceuticals Inc., priority 2018, published 2022).

Consider `O=C(c1cc(Cc2n[nH]c(=O)c3ccccc23)ccc1F)N1CCN(C(=O)C2CC2)CC1` [olaparib], for which the “Relative tumor volume (single agent efficacy)” value is recorded as “modest efficacy as a single agent; also recorded: did not appear to be a dose response” in data set [1] (Example 3: olaparib i.p. 5 days on, 2 days off, 10-100 mg/kg doses (FIG. 6A)) and “modest efficacy as a single agent; also recorded: did not appear to be a dose response” in data set [2] (Example 3: olaparib i.p. 5 days on, 2 days off, 10-100 mg/kg doses (FIG. 6B)). The Relative tumor volume result in data set [1] (Example 4, dosing schedule 1 (FIG. 7): [225Ac]-FPI-1434 50 nCi, olaparib i.p. 50 mg/kg, 2 days off for 28 days, pre-dosed 3 times prior to [225Ac]-FPI-1434, up to 28 days) was “demonstrated some reduction in tumor volume over time”; in data set [1] (Example 5, dosing schedule 2 (FIG. 9): [225Ac]-FPI-1434 50 nCi, olaparib i.p. 50 mg/kg, 2 days off for 28 days, first dose 24 hours after FPI-1434, up to 28 days), “demonstrated significant reduction in tumor volume overtime”; in data set [1] (Example 6 (FIG. 12): lower effective doses, [225Ac]-FPI-1434 20 nCi and olaparib 25 mg/kg i.p., 2 days off from 24 hours after until day 30) it was “no or limited therapeutic effect”; in data set [2] (Example 4, dosing schedule 1 (FIG. 7): [225Ac]-FPI-1434 200 nCi, olaparib i.p. 50 mg/kg, 5 days on, 2 days off for 28 days, pre-dosed 3 times prior to [225Ac]-FPI-1434, up to 28 days), “no apparent difference in tumor volume over time”. Besides, the “DSB formation by immunohistochemical analysis of y-H2AX foci” value in data set [3] is listed as “no increase in DSB formation”.

In the case of `C[C@@H]1COCCN1c1cc(-c2ccnn2C)c2ccnc(-c3ccn[nH]3)c2n1` [BAY-1895344], the Animal somnolence entry in data set [4] was “transient animal somnolence at the higher doses”.
